Test [1] concerns K562. As to the kind of experiment: Antiproliferative activity against human K562 cells after 48 hrs. In kind it is functional, cell-based. As to conditions: K562, 48 h.
Test [2] has as its target Tubulin (Sus scrofa, UniProt P02554+P02550). Put plainly: Inhibition of pig brain tubulin polymerization after 30 mins by turbidimetry.
Test [3] has as its system PtK2. As to the kind of experiment: Disruption of microtubule network in rat kangaroo PtK2 cells at 5 uM after 1 hr by immunofluorescence microscopic analysis. The test is classed as functional, cell-based. The note with it: Potorous tridactylus.

Molecules are shown by their SMILES. Active and inactive are the calls of the source. The calls are words filed in the database; no cut-off is given here.

As to `COc1cc(C(=O)/C=C2\c3cccc(Cl)c3C(=O)c3cccc(Cl)c32)cc(OC)c1OC`, the IC50 in test [1] was 230 nM; in test [2], 0.36 µM. In addition, in test [3], the result was Active.

What is called IC50 is the concentration that inhibits the measured activity by half. Read a low IC50 as greater potency in that assay.

For the origin of these results see ChEMBL document CHEMBL1208684 (Eur J Med Chem, 2010).
